{"source": "paper PMC3542833", "about": "(Journal of the American Chemical Society, 2012)", "key": {"tubulin [1]": {"tested_on": "tubulin", "experiment": "tubulin assembly assay", "format": "biochemical", "conditions": "read-out: Inhibition of Tubulin Assembly IC50±SD; enantiopure analogues"}, "tubulin [2]": {"tested_on": "tubulin", "conditions": "previous finding; ref 5a; cited from earlier work"}, "NCI-60": {"tested_on": "NCI-60", "experiment": "NCI 60-cell screen", "format": "cell-based", "conditions": "read-out: NCI-60 Mean GI50; mean over NCI-60 panel; enantiopure analogues"}, "tubulin [3]": {"tested_on": "tubulin", "experiment": "inhibition of colchicine binding", "conditions": "5 μM inhibitor; enantiopure analogues"}}, "data": [{"substance": "(+)-chamaecypanone C [(+)-2]", "values": [{"measurement": "IC50", "setting": "tubulin [1]", "result": "2200 ± 300", "unit": "nM"}, {"measurement": "activity of chamaecypanone C enantiomers (in words)", "setting": "tubulin [2]", "result": "active"}, {"measurement": "GI50", "setting": "NCI-60", "result": 280, "unit": "nM"}, {"measurement": "% Inhibition of Colchicine Binding ± SD", "setting": "tubulin [3]", "result": "30±4.0", "unit": "%"}]}]}
